Series [1] deals with human colon cancer cell line HCT116 cells. In words: Cell proliferation inhibitory activity, HCT116. The class given is cell-based. Particulars: for IC50: Homo sapiens, HCT-116, read-out: 50% proliferation inhibitory concentration (IC50 value) HCT116, HCT116, 72 hours, WST-8. The method, then: (§1) The compounds according to the present invention were measured for cancer cell proliferation inhibitory activity and human umbilical vein endothelial cell (HUVEC) proliferation inhibitory activity.
(§2) Test compounds were serially diluted with dimethyl sulfoxide and then diluted 50 times with Ca^2+- and Mg^2+-free phosphate-buffered saline, and 20 μL of each of the resulting solution was dispensed into a 96-well plate. […] Each cell suspension contains approximately 3000 cells/180 μL. These cell suspensions were dispensed to the plate containing the test compounds at 180 μL/well and incubated in a 5% carbon dioxide gas incubator at 37° C. for 72 hours. 20 μL of WST-8 (HCT116, Dojin) or WST-1 (HUVEC, Roche Diagnostics) was added to each well, and absorbance at 450 nm (reference wavelength: 650 nm) was measured.

For series [2], the system named is human umbilical vein endothelial cells (HUVEC), VEGF-dependent proliferation. In words: VEGF-dependent HUVEC proliferation inhibition assay. The class given is cell-based. Particulars: read-out: 50% proliferation inhibitory concentration (IC50 value) HUVEC (VEGF-dependent), 20 ng/mL of VEGF, 72 hours, WST-1. On the procedure: as §1, §2
Series [3] deals with human umbilical vein endothelial cells (HUVEC), VEGF-independent proliferation. In words: VEGF-independent HUVEC proliferation inhibition assay. The class given is cell-based. To be noted: read-out: 50% proliferation inhibitory concentration (IC50 value) HUVEC (VEGF-independent), vascular endothelial cell growth-promoting agent and heparin, 72 hours, WST-1. The method, then: as §1, §2

The target of series [4] is T1, FLT3 intracellular domain protein (Homo sapiens, UniProt P36888).
T1 sequence (P36888 564-993 limits assumed): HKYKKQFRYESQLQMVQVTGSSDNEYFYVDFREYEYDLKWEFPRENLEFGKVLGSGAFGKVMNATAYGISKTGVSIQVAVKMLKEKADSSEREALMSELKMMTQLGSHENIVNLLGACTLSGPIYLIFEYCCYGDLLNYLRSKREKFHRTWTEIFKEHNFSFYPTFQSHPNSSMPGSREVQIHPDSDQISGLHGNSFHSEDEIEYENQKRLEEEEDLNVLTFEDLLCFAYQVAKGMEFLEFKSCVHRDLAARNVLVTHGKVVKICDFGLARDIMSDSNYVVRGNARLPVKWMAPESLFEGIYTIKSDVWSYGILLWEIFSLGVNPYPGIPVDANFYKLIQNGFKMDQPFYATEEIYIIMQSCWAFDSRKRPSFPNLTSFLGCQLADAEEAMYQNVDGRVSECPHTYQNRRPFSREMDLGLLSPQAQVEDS
In words: Flt3 enzyme inhibition test (HTRF). The class given is biochemical. To be noted: phosphorylation of biotinylated peptide. The method, then: The FLT3 inhibitory activity was measured by the activity of FLT3 intracellular domain protein inhibiting for phosphorylation of a biotinylated peptide ([…]).

The target of another series is Raf-1 (Homo sapiens, UniProt P04049). In words: Raf-1 enzyme inhibition assay (MEK-1 phosphorylation, HTRF). The class given is biochemical. Particulars: for IC50: phosphorylation of His6-MEK-1. The method, then:
(§3) The compounds according to the present invention were measured for Raf-1 and KDR enzyme inhibitory activities.
(§4) The Raf-1 inhibitory activity was measured by the activity of Raf-1 protein for inhibiting phosphorylation of MEK-1 protein having six histidine residues (His6) fused to the N-terminus thereof. […] The KDR inhibitory activity was measured by the activity of KDR intracellular domain protein for inhibiting phosphorylation of a biotinylated peptide ([…]).

Series [5] concerns the target KDR intracellular domain protein (Homo sapiens, UniProt P35968). In words: KDR enzyme inhibition assay (biotinylated peptide phosphorylation, HTRF). To be noted: phosphorylation of biotinylated peptide. The class given is biochemical. The method, then:
as §3, §4

The nature of series [6]: Solubility in fasted state simulated intestinal fluid. The class given is physicochemical. To be noted: pH 6.5, fassif, kinetic from dmso stock, fasted state simulated intestinal fluid (pH6.5), 37° C. The method, then:
2 μL of each dimethyl sulfoxide solutions containing test compounds were dispensed into wells of a 96-well plate, and 200 μL of fasted state simulated intestinal fluid (pH6.5) was added to each well. The plate was shaken at 37° C. for 20 hours. The solution was filtered through a membrane filter, and 101 μL of the filtrate was transferred to a UV plate, followed by addition of 100 μL of a solution mixture of ethanol:water=2:1 thereto. Separately, as a standard, 101 μL of a solution prepared by 2 μL of a dimethyl sulfoxide solution, 4 μL of dimethyl sulfoxide, 400 μL of ethanol, and 200 μL of water was transferred to a UV plate, and 100 μL of fasted state simulated intestinal fluid (pH6.5) was added thereto. The solubility was calculated by the following expression: Solubility=[(absorbance of test solution)−blank]/[(absorbance of standard solution)−blank]×165 μM (165 μM is the concentration of the standard solution) Composition of the fasted state simulated intestinal fluid (pH6.5)
The composition was prepared in compliance with the description in E. Galia, et al., Pharm. Res. 1998, 698.
Taurocholic acid (161 mg), L-α-phosphatidylcholine (59 mg), potassium dihydrogen phosphate (0.39 g), and potassium chloride (0.77 g) were added to about 90 mL of water. The resulting solution was adjusted to a pH of 6.5 with a sodium hydroxide aqueous solution and then diluted to a volume of 100 mL with water. The solution was filtered through a membrane filter.

Results on 18 compounds are retold here after patent US8299252B2, “Pyrazolopyridine and pyrrolopyridine multikinase inhibitors” (Chugai Seiyaku Kabushiki Kaisha, priority 2005, dated 2012).

Values after ≈ are worked out from the molar mass of the structure shown.

Sequence of Raf-1 (P04049 whole entry): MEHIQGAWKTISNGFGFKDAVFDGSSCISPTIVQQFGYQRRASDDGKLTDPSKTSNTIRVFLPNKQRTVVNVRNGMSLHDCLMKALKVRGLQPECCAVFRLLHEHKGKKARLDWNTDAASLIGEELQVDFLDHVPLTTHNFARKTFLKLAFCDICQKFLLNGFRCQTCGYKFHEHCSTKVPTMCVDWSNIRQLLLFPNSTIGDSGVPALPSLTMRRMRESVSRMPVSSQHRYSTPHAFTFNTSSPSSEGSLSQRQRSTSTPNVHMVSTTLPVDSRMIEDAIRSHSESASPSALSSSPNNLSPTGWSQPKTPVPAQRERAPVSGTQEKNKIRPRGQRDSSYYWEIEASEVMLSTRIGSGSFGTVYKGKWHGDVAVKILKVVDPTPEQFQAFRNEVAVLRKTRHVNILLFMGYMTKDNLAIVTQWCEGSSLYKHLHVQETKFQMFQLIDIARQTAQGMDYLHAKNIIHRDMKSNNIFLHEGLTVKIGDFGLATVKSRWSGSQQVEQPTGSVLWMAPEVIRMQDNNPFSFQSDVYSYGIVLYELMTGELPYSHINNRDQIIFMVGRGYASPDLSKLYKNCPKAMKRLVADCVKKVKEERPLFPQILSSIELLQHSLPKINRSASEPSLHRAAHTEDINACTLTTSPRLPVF
Sequence of KDR intracellular domain protein (P35968 786-1356 limits assumed): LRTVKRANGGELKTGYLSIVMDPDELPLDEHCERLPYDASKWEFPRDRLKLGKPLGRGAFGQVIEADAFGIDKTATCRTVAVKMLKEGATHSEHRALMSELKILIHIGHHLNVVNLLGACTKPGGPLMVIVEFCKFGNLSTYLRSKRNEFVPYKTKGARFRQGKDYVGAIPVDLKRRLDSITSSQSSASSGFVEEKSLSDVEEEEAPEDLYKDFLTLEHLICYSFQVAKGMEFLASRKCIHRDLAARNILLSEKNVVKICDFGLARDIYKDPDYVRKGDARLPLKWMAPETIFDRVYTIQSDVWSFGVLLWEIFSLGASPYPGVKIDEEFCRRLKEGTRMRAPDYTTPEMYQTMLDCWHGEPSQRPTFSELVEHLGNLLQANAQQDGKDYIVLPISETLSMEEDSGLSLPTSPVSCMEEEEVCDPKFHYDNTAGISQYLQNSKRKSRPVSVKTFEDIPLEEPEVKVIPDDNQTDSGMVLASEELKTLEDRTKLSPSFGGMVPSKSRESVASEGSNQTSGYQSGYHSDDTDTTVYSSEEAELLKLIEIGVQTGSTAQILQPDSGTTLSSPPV

Turning to `COCCOc1cccc2cc(NC(=O)Nc3ccc(Oc4ccnc5[nH]ccc45)cc3)ccc12` [Compound 3, 1-[5-(2-Methoxyethoxy)naphthalen-2-yl]-3-[4-(1H-pyrrolo[2,3-b]pyridin-4-yloxy)phenyl]urea], the IC50 stood at 3400 nM in series [1], 3.7 nM in series [2], 4400 nM in series [3] and 15 nM in series [4].
As for `O=C(Nc1ccc(Oc2ccnc3[nH]ccc23)cc1)Nc1cc(OC2CCOCC2)cc(C(F)(F)F)c1` [Compound 9, 1-[4-(1H-Pyrrolo[2,3-b]pyridin-4-yloxy)phenyl]-3-[3-(tetrahydro-pyran-4-yloxy)-5-(trifluoromethyl)phenyl]urea], the IC50 in series [1] stood at 1700 nM; in series [2] it was 30 nM; in series [3], 1800 nM; on Raf-1 it was 65 nM; in series [5], 2.2 nM.
`O=C(Nc1ccc(Oc2ccnc3[nH]ccc23)cc1)Nc1ccc(OCC(F)(F)F)c(C(F)(F)F)c1` [Compound 13, 1-[4-(1H-Pyrrolo[2,3-b]pyridin-4-yloxy)phenyl]-3-[4-(2,2,2-trifluoro-ethoxy)-3-(trifluoromethyl)phenyl]urea]: the figures for the IC50 in series [1], in series [2] and in series [3] were 3100 nM, 7.4 nM and 1200 nM, respectively. Moreover, the solubility at 20 h in series [6] was 15 µg/mL (≈ 29.4 µM).
In series [6], `O=C(Nc1ccc(Oc2ccnc3[nH]ccc23)cc1)Nc1ccc(OC(F)(F)F)c(C(F)(F)F)c1` [Compound 20, 1-[4-(1H-Pyrrolo[2,3-b]pyridin-4-yloxy)phenyl]-3-[4-trifluoromethoxy-3-(trifluoromethyl)phenyl]urea] came in with a solubility at 20 h of 25 µg/mL (≈ 50.4 µM).
In the case of `O=C(Nc1ccc(Oc2ccnc3[nH]ncc23)cc1)Nc1ccc(CCF)c(C(F)(F)F)c1` [Compound 23, 1-[4-(2-Fluoroethyl)-3-(trifluoromethyl)phenyl]-3-[4-(1H-pyrazolo[3,4-b]pyridin-4-yloxy)phenyl]urea], the IC50 worked out at 19 nM at Raf-1, 3.7 nM in series [5] and 6.9 nM in series [4].
With `O=C(Nc1ccc(Oc2ccnc3[nH]ncc23)cc1)Nc1cc(CCF)cc(C(F)(F)F)c1` [Compound 24, 1-[3-(2-Fluoroethyl)-5-(trifluoromethyl)phenyl]-3-[4-(1H-pyrazolo[3,4-b]pyridin-4-yloxy)phenyl]urea], in series [6], the concentration in solution (solubility at 20 h) came to 19 µg/mL (≈ 41.4 µM). This compound also had an IC50 in series [4] of 18 nM.
For `O=C(Nc1ccc(Oc2ccnc3[nH]ccc23)cc1)Nc1cc(CCCF)cc(C(F)(F)F)c1` [Compound 29, 1-[3-(3-Fluoropropyl)-5-(trifluoromethyl)phenyl]-3-[4-(1H-pyrrolo[2,3-b]pyridin-4-yloxy)phenyl]urea], the IC50 stood at 1600 nM in series [1]; 8 nM in series [2]; 1100 nM in series [3]; 82 nM on Raf-1; 9.1 nM in series [5].
As for `O=C(Nc1ccc(Oc2ccnc3[nH]ccc23)cc1)Nc1cc(CCC(F)F)cc(C(F)(F)F)c1` [Compound 32, 1-[3-(3,3-Difluoropropyl)-5-(trifluoromethyl)phenyl]-3-[4-(1H-pyrrolo[2,3-b]pyridin-4-yloxy)phenyl]urea], the IC50 in series [1] is 1500 nM; in series [2], 15 nM; in series [3], 1200 nM; against Raf-1, 62 nM; in series [5], 0.95 nM.
With `O=C(Nc1ccc(Oc2ccnc3[nH]ccc23)cc1)Nc1ccc(CCCCF)c(C(F)(F)F)c1` [Compound 34, 1-[4-(4-Fluorobutyl)-3-(trifluoromethyl)phenyl]-3-[4-(1H-pyrrolo[2,3-b]pyridin-4-yloxy)phenyl]urea], the concentration in solution in series [6] (solubility at 20 h) came to 21 µg/mL (≈ 43.2 µM).
Compound `O=C(Nc1ccc(Oc2ccnc3[nH]ncc23)cc1)Nc1ccc(CCCCF)c(C(F)(F)F)c1` [Compound 35, 1-[4-(4-Fluorobutyl)-3-(trifluoromethyl)phenyl]-3-[4-(1H-pyrazolo[3,4-b]pyridin-4-yloxy)phenyl]urea] showed a solubility at 20 h in series [6] of 18 µg/mL (≈ 36.9 µM).
Regarding `O=C(Nc1ccc(Oc2ccnc3[nH]ccc23)cc1)Nc1cc(CCCCF)cc(C(F)(F)F)c1` [Compound 38, 1-[3-(4-Fluorobutyl)-5-(trifluoromethyl)phenyl]-3-[4-(1H-pyrrolo[2,3-b]pyridin-4-yloxy)phenyl]urea], the IC50 against Raf-1 was 64 nM; in series [5], 1.3 nM.
As to `O=C(Nc1ccc(Oc2ccnc3[nH]ccc23)cc1)Nc1cc(CCCC(F)F)cc(C(F)(F)F)c1` [Compound 41, 1-[3-(4,4-Difluorobutyl)-5-(trifluoromethyl)phenyl]-3-[4-(1H-pyrrolo[2,3-b]pyridin-4-yloxy)phenyl]urea], the results for the IC50 (at Raf-1; in series [5]) were 82 nM and 3.5 nM, respectively.
Consider `O=C(Nc1ccc(Oc2ccnc3[nH]ccc23)cc1)Nc1ccc2c(CCF)cccc2c1` [Compound 42, 1-[5-(2-Fluoroethyl)naphthalen-2-yl]-3-[4-(1H-pyrrolo[2,3-b]pyridin-4-yloxy)phenyl]urea], for which the IC50 in series [1] worked out at 4400 nM; in series [2] it was 50 nM; in series [3], 5900 nM; in series [4] it was 6 nM.
As to `O=C(Nc1ccc(Oc2ccnc3[nH]ccc23)cc1)Nc1ccc2c(CCCF)cccc2c1` [Compound 46, 1-[5-(3-Fluoropropyl)naphthalen-2-yl]-3-[4-(1H-pyrrolo[2,3-b]pyridin-4-yloxy)phenyl]urea], the IC50 worked out at 3300 nM in series [1], 15 nM in series [2] and 4100 nM in series [3].
Compound `O=C(Nc1ccc(Oc2ccnc3[nH]ccc23)cc1)Nc1cc(C(F)(F)F)cc(C(F)(F)F)c1` [Compound 50, 1-[3,5-Bis(trifluoromethyl)phenyl]-3-[4-(1H-pyrrolo[2,3-b]pyridin-4-yloxy)phenyl]urea] showed a solubility at 20 h in series [6] of 35 µg/mL (≈ 72.9 µM).
For the compound `CCc1ccc(NC(=O)Nc2ccc(Oc3ccnc4[nH]ccc34)cc2)cc1C(F)(F)F` [Compound 55, 1-(4-Ethyl-3-trifluoromethyl-phenyl)-3-[4-(1H-pyrrolo[2,3-b]pyridin-4-yloxy)phenyl]urea], the IC50 in series [1] came out at 1500 nM; in series [2] it was 7.2 nM; in series [3], 1400 nM; against Raf-1 it was 47 nM; in series [5], 8.5 nM.
With `C=Cc1ccc(NC(=O)Nc2ccc(Oc3ccnc4[nH]ccc34)cc2)cc1C(F)(F)F` [Compound 56, 1-[4-(1H-Pyrrolo[2,3-b]pyridin-4-yloxy)phenyl]-3-(3-trifluoromethyl-4-vinyl-phenyl)urea], the IC50 amounted to 2200 nM in series [1]; 12 nM in series [2]; 3100 nM in series [3]; 70 nM on Raf-1; 16 nM in series [5].
With `O=C(Nc1ccc(F)cc1)Nc1ccc(Oc2ccnc3[nH]ccc23)cc1` [Compound B, reference compound], the “proliferation inhibitory activity for HCT116 cells (in words)” value in series [1] is recorded as “does not have proliferation inhibitory activity”. In addition, at Raf-1, the “Raf-1 inhibitory activity (in words)” value is “does not have Raf-1 inhibitory activity”.
